{"source": "patent US11633447B2", "about": "“Pharmaceutical composition and functional health food for preventing or treating macular degeneration” (LEMONEX INC., priority 2018, dated 2023)", "key": {"ARPE-19 cells": {"system": "ARPE-19 cells", "test": "Retinal pigment epithelial cell protection against blue light-induced photooxidation after A2E accumulation (cell counting kit-8 viability)", "assay_type": "cell-based", "details": "17.04 μg/mL (30 μM) for 24 hours; 20 μM A2E; blue light 4,000 lux 10 minutes; difference control vs blue light group set to 100%", "method": "Since it is already known that photooxidation occurs when retinal pigment epithelial cells accumulated with A2E are irradiated with blue light, it was confirmed whether cytotoxicity derived by irradiation with blue light after 20 μM A2E accumulation in ARPE-19 cells could be suppressed using the banaba leaf extract, guava leaf extract, and the mixture thereof. Specifically, all ARPE-19 cells were treated with A2E at a concentration of 20 μM for 24 hours, and then treated with 100 μg/mL of the banaba leaf extract, the guava leaf extract, and the mixture thereof in Example 1, respectively, or 17.04 μg/mL (30 μM) of lutein for 24 hours. Thereafter, the treated cells were irradiated with blue light (4,000 lux) for 10 minutes. 24 hours after blue light irradiation, cell viability of ARPE-19 cells was measured by a cell counting kit-8 (Dojindo Labs, Japan), and the percentage of cell viability of each treatment group was compared to the control not irradiated with blue light. Lutein was used as a positive control. […] By setting a difference in cell viability between the control not irradiated with blue light and the blue light irradiated group to be 100%, cell protective effects of each extract were estimated by calculating cell protective effects through a difference in cell viability between the blue light irradiated group and the treated group. […]"}, "Balb-c mice": {"system": "Balb-c mice", "test": "Blue light-induced macular degeneration animal model, thickness of outer nuclear layer (ONL) by H&E staining", "assay_type": "in vivo", "details": "oral, once daily, 50 mg/kg, blue light 10,000 lux 1 hour per day for 14 days", "method": "Balb-c mice (5 weeks old, males) were acclimated and bred for 2 days, and then orally administered with each of the banaba leaf extract, the guava leaf extract, the mixture thereof or lutein (50 mg/kg) once daily for 7 days. Then, after 24 hours of dark acclimatization, each of the extracts and the mixture and lutein was orally administered for 14 days, and 30 minutes later, followed by blue light irradiation at 10,000 lux for 1 hour per day. 24 hours after the blue light irradiation and the end of administration of the extract, the mice were sacrificed to an extract eyeball, and then, retinal cell protective effects were determined through tissue staining (FIG. 4).\nThe extracted eyeball tissue was fixed with a neutral buffered formalin solution. The fixed eyeball was washed with running water and was subjected to a dehydration process using alcohol. Thereafter, a clearing process was performed using Xylene, and proper rigidity was given to the tissue using paraffin. The eyeball was made into a predetermined shape of paraffin block, and then cut to 4 μm thickness. The cut eyeball was subjected to hematoxylin & eosin (H & E) staining. […] Then, a thickness of the outer nuclear layer (ONL) of the visual cell was measured by Image J software (National Institute of Health, […], Md., USA)), followed by counting the number of nuclei. […]"}}, "data": [{"smiles": "CC1=C[C@H](O)CC(C)(C)[C@H]1/C=C/C(C)=C/C=C/C(C)=C/C=C/C=C(C)/C=C/C=C(C)/C=C/C1=C(C)C[C@@H](O)CC1(C)C", "note": "[lutein]", "values": [{"measurement": "cell protective effect (cell viability)", "setting": "ARPE-19 cells", "value": 48.4, "unit": "%"}, {"measurement": "ONL thickness change in administered groups", "setting": "Balb-c mice", "value": "significantly increased ONL thickness"}, {"measurement": "ONL protective effect (ONL thickness)", "setting": "Balb-c mice; difference control vs blue light group set to 100%", "value": 28.2, "unit": "%"}]}]}
